Test results from patent US12570642B2, “GLP-IR modulating compounds” (Gilead Sciences, Inc., priority 2021, dated 2026).

target: GLP-1R (Homo sapiens, UniProt P43220); experiment: GLP-1R Activation - cAMP Assay; format: cell-based; conditions: cAMP increase in CHO cells stably expressing GLP-1R; each compound run on one of the two cAMP assays (Assay 1 or Assay 2, not specified)
Procedure, shortened: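 CHO cells stably expressing GLP-1R, plated at 1,000 cells/well overnight, then equilibrated 1 h in HBSS with 20 mM Hepes and 0.1% BSA. Agonist added as 10-point dose response for 30 min at 37 °C. cAMP measured by HTRF (Cisbio Gs Dynamic kit); EC50 from sigmoidal fit.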

GLP-1R, sequence (P43220 24-463): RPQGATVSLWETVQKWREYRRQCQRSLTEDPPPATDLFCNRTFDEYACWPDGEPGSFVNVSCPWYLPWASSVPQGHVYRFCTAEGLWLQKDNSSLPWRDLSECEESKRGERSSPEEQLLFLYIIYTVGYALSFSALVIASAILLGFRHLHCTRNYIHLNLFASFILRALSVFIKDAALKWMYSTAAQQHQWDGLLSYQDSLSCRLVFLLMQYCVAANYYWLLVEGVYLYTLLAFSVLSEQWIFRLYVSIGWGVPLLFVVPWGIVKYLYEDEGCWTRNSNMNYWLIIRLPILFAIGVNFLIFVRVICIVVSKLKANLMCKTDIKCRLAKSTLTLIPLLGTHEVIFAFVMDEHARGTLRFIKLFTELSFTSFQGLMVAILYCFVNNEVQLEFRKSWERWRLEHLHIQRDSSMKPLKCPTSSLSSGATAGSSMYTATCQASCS

Row | EC50 [pM] | SMILES
1 | 99 | Cc1ccc(COc2cccc(-c3cc(F)c(Cc4nc5ccc(C(=O)O)cc5n4C4COCC4(C)C)cc3F)n2)c(Cl)n1 (stereo not drawn) [Example 286, 2-(4-(6-((2-chloro-6-methylpyridin-3-yl)methoxy)pyridin-2-yl)-2,5-difluorobenzyl)-1-(4,4-dimethyltetrahydrofuran-3-yl)-1H-benzo[d]imidazole-6-carboxylic acid]
2 | 51 | CC1(C)COC[C@H]1n1c(Cc2cc(F)c(-c3cccc(OCc4ncc(Cl)cc4F)n3)cc2F)nc2c(F)cc(C(=O)O)cc21 [Example 287, (S)-2-(4-(6-((5-chloro-3-fluoropyridin-2-yl)methoxy)pyridin-2-yl)-2,5-difluorobenzyl)-1-(4,4-dimethyltetrahydrofuran-3-yl)-4-fluoro-1H-benzo[d]imidazole-6-carboxylic acid]
3 | 41 | COc1cc(Cl)ncc1COc1cccc(-c2cc(F)c(Cc3nc4c(F)cc(C(=O)O)cc4n3[C@@H]3COCC3(C)C)cc2F)n1 [Example 288, (S)-2-(4-(6-((6-chloro-4-methoxypyridin-3-yl)methoxy)pyridin-2-yl)-2,5-difluorobenzyl)-1-(4,4-dimethyltetrahydrofuran-3-yl)-4-fluoro-1H-benzo[d]imidazole-6-carboxylic acid]
4 | 76 | COCCn1c(Cc2cc(F)c(-c3cccc(OCc4cnc(Cl)cc4OC)n3)cc2F)nc2c(F)cc(C(=O)O)cc21 [Example 291, 2-(4-(6-((6-chloro-4-methoxypyridin-3-yl)methoxy)pyridin-2-yl)-2,5-difluorobenzyl)-4-fluoro-1-(2-methoxyethyl)-1H-benzo[d]imidazole-6-carboxylic acid]
5 | 133 | COCCn1c(Cc2c(F)cc(-c3cccc(OCc4ccc(C#N)cc4F)n3)c(F)c2F)nc2c(F)cc(C(=O)O)cc21 [Example 292, 2-(4-(6-((4-cyano-2-fluorobenzyl)oxy)pyridin-2-yl)-2,3,6-trifluorobenzyl)-4-fluoro-1-(2-methoxyethyl)-1H-benzo[d]imidazole-6-carboxylic acid]
6 | 40 | CC1(C)COCC1n1c(Cc2c(F)cc(-c3cccc(OCc4ccc(C#N)cc4F)n3)c(F)c2F)nc2ccc(C(=O)O)cc21 (stereo not drawn) [Example 293, 2-(4-(6-((4-cyano-2-fluorobenzyl)oxy)pyridin-2-yl)-2,3,6-trifluorobenzyl)-1-(4,4-dimethyltetrahydrofuran-3-yl)-1H-benzo[d]imidazole-6-carboxylic acid]
7 | 21 | COc1cc(Cl)ncc1COc1cccc(-c2cc(F)c(Cc3nc4ccc(C(=O)O)cc4n3C3COCC3(C)C)cc2F)n1 (stereo not drawn) [Example 294, 2-(4-(6-((6-chloro-4-methoxypyridin-3-yl)methoxy)pyridin-2-yl)-2,5-difluorobenzyl)-1-(4,4-dimethyltetrahydrofuran-3-yl)-1H-benzo[d]imidazole-6-carboxylic acid]
8 | 42 | CC1(C)COCC1n1c(Cc2cc(F)c(-c3cccc(OCc4cnc(Cl)cc4F)n3)cc2F)nc2ccc(C(=O)O)cc21 (stereo not drawn) [Example 295, 2-(4-(6-((6-chloro-4-fluoropyridin-3-yl)methoxy)pyridin-2-yl)-2,5-difluorobenzyl)-1-(4,4-dimethyltetrahydrofuran-3-yl)-1H-benzo[d]imidazole-6-carboxylic acid]
9 | 66 | CC1(C)COCC1n1c(Cc2cc(F)c(-c3cccc(OCc4ncc(Cl)cc4F)n3)cc2F)nc2ccc(C(=O)O)cc21 (stereo not drawn) [Example 296, 2-(4-(6-((5-chloro-3-fluoropyridin-2-yl)methoxy)pyridin-2-yl)-2,5-difluorobenzyl)-1-(4,4-dimethyltetrahydrofuran-3-yl)-1H-benzo[d]imidazole-6-carboxylic acid]
10 | 151 | CC1(C)COC[C@H]1n1c(Cn2cc(F)c(-c3cccc(OCc4ccc(Cl)cc4)n3)cc2=O)nc2ccc(C(=O)O)cc21 [Example 297, (S)-2-((6-((4-chlorobenzyl)oxy)-5′-fluoro-2′-oxo-[2,4′-bipyridin]-1′(2′H)-yl)methyl)-1-(4,4-dimethyltetrahydrofuran-3-yl)-1H-benzo[d]imidazole-6-carboxylic acid]
11 | 663 | CC1(C)COC[C@H]1n1c(Cc2ccc(-c3ccnc(OCc4ccc(C#N)cc4F)n3)cc2F)nc2c(F)cc(C(=O)O)cc21 [Example 298, (S)-2-(4-(2-((4-cyano-2-fluorobenzyl)oxy)pyrimidin-4-yl)-2-fluorobenzyl)-1-(4,4-dimethyltetrahydrofuran-3-yl)-4-fluoro-1H-benzo[d]imidazole-6-carboxylic acid]
12 | 342 | CC1(C)COC[C@H]1n1c(Cc2cc(F)c(-c3ccc(F)c(OCc4ccc(Cl)cc4)n3)cc2F)nc2ccc(C(=O)O)cc21 [Example 299, (S)-2-(4-(6-((4-chlorobenzyl)oxy)-5-fluoropyridin-2-yl)-2,5-difluorobenzyl)-1-(4,4-dimethyltetrahydrofuran-3-yl)-1H-benzo[d]imidazole-6-carboxylic acid]
13 | 268 | CC1(C)COC[C@H]1n1c(Cn2cc(F)c(-c3ccc(F)c(OCc4ccc(Cl)cc4)n3)cc2=O)nc2ccc(C(=O)O)cc21 [Example 300, (S)-2-((6-((4-chlorobenzyl)oxy)-5,5′-difluoro-2′-oxo-[2,4′-bipyridin]-1′(2′H)-yl)methyl)-1-(4,4-dimethyltetrahydrofuran-3-yl)-1H-benzo[d]imidazole-6-carboxylic acid]
14 | 714 | Cc1cc(Cc2nc3ccc(C(=O)O)cc3n2[C@@H]2COCC2(C)C)c(Cl)cc1-c1ccnc(OCc2ccc(C#N)cc2)n1 [Example 301, (S)-2-(2-chloro-4-(2-((4-cyanobenzyl)oxy)pyrimidin-4-yl)-5-methylbenzyl)-1-(4,4-dimethyltetrahydrofuran-3-yl)-1H-benzo[d]imidazole-6-carboxylic acid]
15 | 181 | CC1(C)COC[C@H]1n1c(Cc2c(F)cc(-c3cccc(OCc4ccc(Cl)cc4F)n3)cc2F)nc2ccc(C(=O)O)cc21 [Example 302, (S)-2-(4-(6-((4-chloro-2-fluorobenzyl)oxy)pyridin-2-yl)-2,6-difluorobenzyl)-1-(4,4-dimethyltetrahydrofuran-3-yl)-1H-benzo[d]imidazole-6-carboxylic acid]
16 | 170 | CC1(C)COC[C@H]1n1c(Cc2c(F)cc(-c3ccc(F)c(OCc4ccc(Cl)cc4F)n3)cc2F)nc2ccc(C(=O)O)cc21 [Example 303, (S)-2-(4-(6-((4-chloro-2-fluorobenzyl)oxy)-5-fluoropyridin-2-yl)-2,6-difluorobenzyl)-1-(4,4-dimethyltetrahydrofuran-3-yl)-1H-benzo[d]imidazole-6-carboxylic acid]
17 | 125 | CC1(C)COC[C@H]1n1c(Cc2c(F)cc(-c3cccc(OCc4ccc(Cl)cc4F)n3)cc2F)nc2c(F)cc(C(=O)O)cc21 [Example 305, (S)-2-(4-(6-((4-chloro-2-fluorobenzyl)oxy)pyridin-2-yl)-2,6-difluorobenzyl)-1-(4,4-dimethyltetrahydrofuran-3-yl)-4-fluoro-1H-benzo[d]imidazole-6-carboxylic acid]
18 | 123 | CC1(C)COC[C@H]1n1c(Cc2c(F)cc(-c3ccc(F)c(OCc4ccc(Cl)cc4F)n3)cc2F)nc2c(F)cc(C(=O)O)cc21 [Example 306, (S)-2-(4-(6-((4-chloro-2-fluorobenzyl)oxy)-5-fluoropyridin-2-yl)-2,6-difluorobenzyl)-1-(4,4-dimethyltetrahydrofuran-3-yl)-4-fluoro-1H-benzo[d]imidazole-6-carboxylic acid]
19 | 508 | CC1(C)COC[C@H]1n1c(Cc2c(F)cc(-c3ccc(F)c(OCc4ccc(C#N)cc4F)n3)cc2F)nc2c(F)cc(C(=O)O)cc21 [Example 307, (S)-2-(4-(6-((4-cyano-2-fluorobenzyl)oxy)-5-fluoropyridin-2-yl)-2,6-difluorobenzyl)-1-(4,4-dimethyltetrahydrofuran-3-yl)-4-fluoro-1H-benzo[d]imidazole-6-carboxylic acid]
20 | 180 | CC1(C)COC[C@H]1n1c(Cc2ccc(-c3ccc(F)c(OCc4ccc(C#N)cc4)n3)cc2F)nc2c(F)cc(C(=O)O)cc21 [Example 308, (S)-2-(4-(6-((4-cyanobenzyl)oxy)-5-fluoropyridin-2-yl)-2-fluorobenzyl)-1-(4,4-dimethyltetrahydrofuran-3-yl)-4-fluoro-1H-benzo[d]imidazole-6-carboxylic acid]
21 | 368 | COc1nnc(COc2cccc(-c3ccc(Cc4nc5c(F)cc(C(=O)O)cc5n4[C@@H]4COCC4(C)C)c(F)c3)n2)s1 [Example 309, (S)-1-(4,4-dimethyltetrahydrofuran-3-yl)-4-fluoro-2-(2-fluoro-4-(6-((5-methoxy-1,3,4-thiadiazol-2-yl)methoxy)pyridin-2-yl)benzyl)-1H-benzo[d]imidazole-6-carboxylic acid]
22 | 32 | CC1(C)COC[C@H]1n1c(Cc2c(F)cc(-c3ccc(F)c(OCc4ccc(Cl)cc4)n3)c(F)c2F)nc2c(F)cc(C(=O)O)cc21 [Example 310, (S)-2-(4-(6-((4-chlorobenzyl)oxy)-5-fluoropyridin-2-yl)-2,3,6-trifluorobenzyl)-1-(4,4-dimethyltetrahydrofuran-3-yl)-4-fluoro-1H-benzo[d]imidazole-6-carboxylic acid]
23 | 140 | CC1(C)COC[C@H]1n1c(Cc2c(F)cc(-c3ccc(F)c(OCc4ccc(C#N)cc4)n3)c(F)c2F)nc2c(F)cc(C(=O)O)cc21 [Example 316, (S)-2-(4-(6-((4-cyanobenzyl)oxy)-5-fluoropyridin-2-yl)-2,3,6-trifluorobenzyl)-1-(4,4-dimethyltetrahydrofuran-3-yl)-4-fluoro-1H-benzo[d]imidazole-6-carboxylic acid]
24 | 451 | Cc1cc(Cc2nc3c(F)cc(C(=O)O)cc3n2[C@@H]2COCC2(C)C)c(Cl)cc1-c1ccnc(OCc2ccc(Cl)cc2F)n1 [Example 317, (S)-2-(2-chloro-4-(2-((4-chloro-2-fluorobenzyl)oxy)pyrimidin-4-yl)-5-methylbenzyl)-1-(4,4-dimethyltetrahydrofuran-3-yl)-4-fluoro-1H-benzo[d]imidazole-6-carboxylic acid]
